Reference: ChEMBL document CHEMBL1154782, “Discovery of Trp-His and His-Arg analogues as new structural classes of short antimicrobial peptides” (J Med Chem, 2009)
Values after ≈ are worked out from the molar mass of the structure shown. Where a SMILES comes first, the peptide text is derived from it. The star is where a group is joined. Boc = CC(C)(C)OC(=O)*; NHBn = c1ccc(CN*)cc1

Legend:
Staphylococcus aureus [1] = assay: Antibacterial activity against methicillin-resistant Staphylococcus aureus DSM 50128509 after 15 to 18 hrs under aerobic condition by modified broth microdilution method; format: functional
Staphylococcus aureus [2] = assay: Antibacterial activity against methicillin-resistant Staphylococcus aureus DSM 50128509; format: functional, organism-based
[3] = system: Staphylococcus epidermidis; assay: Antibacterial activity against methicillin-resistant Staphylococcus epidermidis DSM 50160384 after 15 to 18 hrs under aerobic condition by modified broth microdilution method; format: functional
[4] = system: Staphylococcus epidermidis; assay: Antibacterial activity against methicillin-resistant Staphylococcus epidermidis DSM 50160384; format: functional, organism-based
Escherichia coli [5] = assay: Antibacterial activity against Escherichia coli ATCC 35218 after 15 to 18 hrs under aerobic condition by modified broth microdilution method; format: functional
Escherichia coli [6] = assay: Antibacterial activity against Escherichia coli ATCC 35218; format: functional, organism-based
Klebsiella pneumoniae [7] = assay: Antibacterial activity against Klebsiella pneumoniae ATCC 700603 after 15 to 18 hrs under aerobic condition by modified broth microdilution method; format: functional
Pseudomonas aeruginosa [8] = assay: Antibacterial activity against Pseudomonas aeruginosa ATCC 9027 after 15 to 18 hrs under aerobic condition by modified broth microdilution method; format: functional
Pseudomonas aeruginosa [9] = assay: Antibacterial activity against Pseudomonas aeruginosa ATCC 9027; format: functional, organism-based
Candida albicans [10] = assay: Antifungal activity against Candida albicans ATCC 10231 after 15 to 18 hrs under aerobic condition by modified broth microdilution method; format: functional
L929 = assay: Cytotoxicity against mouse L929 cells up to 200 ug/mL after 5 days by MTT assay; format: cell-based; conditions: l929, 120 h
Klebsiella pneumoniae [11] = assay: Antibacterial activity against Klebsiella pneumoniae ATCC 700603; format: functional, organism-based
Candida albicans [12] = assay: Antifungal activity against Candida albicans ATCC 10231; format: functional, organism-based

SMILES	MIC (Staphylococcus aureus [1])	IC50 (Staphylococcus aureus [2])	MIC [3]	IC50 [4]	MIC (Escherichia coli [5])	IC50 (Escherichia coli [6])	MIC (Klebsiella pneumoniae [7])	MIC (Pseudomonas aeruginosa [8])	IC50 (Pseudomonas aeruginosa [9])	MIC (Candida albicans [10])	Activity (L929)	IC50 (Klebsiella pneumoniae [11])	IC50 (Candida albicans [12])
CC(C)c1nc(C[C@H](NC(=O)OC(C)(C)C)C(=O)N[C@@H](CCCNC(=N)N)C(=O)NCc2ccccc2)c[nH]1	100 µg/mL (≈ 184 µM)	17.9 µg/mL (≈ 33.1 µM)	100 µg/mL (≈ 184 µM)	12.7 µg/mL (≈ 23.3 µM)	200 µg/mL (≈ 369 µM)	23.7 µg/mL (≈ 43.7 µM)	> 200 µg/mL	200 µg/mL (≈ 369 µM)	45.1 µg/mL (≈ 83.2 µM)	> 200 µg/mL	Non-toxic		
N[C@@H](Cc1c[nH]c2ccccc12)C(=O)N[C@@H](Cc1c[nH]c(C23CC4CC(CC(C4)C2)C3)n1)C(=O)NCc1ccccc1	100 µg/mL (≈ 177 µM)	16 µg/mL (≈ 28.3 µM)	50 µg/mL (≈ 88.5 µM)	4.7 µg/mL (≈ 8.32 µM)	200 µg/mL (≈ 354 µM)	21.3 µg/mL (≈ 37.8 µM)	200 µg/mL (≈ 354 µM)	> 200 µg/mL		50 µg/mL (≈ 88.5 µM)	Non-toxic	32 µg/mL (≈ 56.6 µM)	8.25 µg/mL (≈ 14.6 µM)
CC(C)(C)OC(=O)N[C@@H](Cc1c[nH]c(C23CC4CC(CC(C4)C2)C3)n1)C(=O)N[C@@H](CCCNC(=N)N)C(=O)NCc1ccccc1	20 µg/mL (≈ 31.5 µM)	7.47 µg/mL (≈ 11.8 µM)	100 µg/mL (≈ 158 µM)	11.5 µg/mL (≈ 18.1 µM)	> 200 µg/mL		100 µg/mL (≈ 158 µM)	100 µg/mL (≈ 158 µM)	27.2 µg/mL (≈ 42.9 µM)	> 200 µg/mL	Non-toxic	15.1 µg/mL (≈ 23.8 µM)	
COC(=O)[C@H](CCCNC(=N)N)NC(=O)[C@H](Cc1c[nH]c(C2CCC2)n1)NC(=O)OC(C)(C)C	> 200 µg/mL		> 200 µg/mL		200 µg/mL (≈ 417 µM)	18.1 µg/mL (≈ 37.8 µM)	200 µg/mL (≈ 417 µM)	> 200 µg/mL		> 200 µg/mL	Non-toxic	15 µg/mL (≈ 31.2 µM)	
CC(C)(C)OC(=O)N[C@@H](Cc1c[nH]c(C2CCC2)n1)C(=O)N[C@@H](CCCNC(=N)N)C(=O)NCc1ccccc1	> 200 µg/mL		200 µg/mL (≈ 361 µM)	19.3 µg/mL (≈ 34.8 µM)	> 200 µg/mL		200 µg/mL (≈ 361 µM)	> 200 µg/mL		> 200 µg/mL	Non-toxic	20.8 µg/mL (≈ 37.5 µM)	
CC(C)c1nc(C[C@H](N)C(=O)N[C@@H](CCCNC(=N)N)C(=O)NCc2ccccc2)c[nH]1	100 µg/mL (≈ 226 µM)	4.85 µg/mL (≈ 11 µM)	200 µg/mL (≈ 452 µM)	12.8 µg/mL (≈ 28.8 µM)	> 200 µg/mL		> 200 µg/mL	200 µg/mL (≈ 452 µM)	27.8 µg/mL (≈ 62.7 µM)	> 200 µg/mL	Non-toxic		
N=C(N)NCCC[C@H](NC(=O)[C@@H](N)Cc1c[nH]c(C23CC4CC(CC(C4)C2)C3)n1)C(=O)NCc1ccccc1	5 µg/mL (≈ 9.35 µM)	2.15 µg/mL (≈ 4.02 µM)	10 µg/mL (≈ 18.7 µM)	1.19 µg/mL (≈ 2.23 µM)	200 µg/mL (≈ 374 µM)	9.29 µg/mL (≈ 17.4 µM)	100 µg/mL (≈ 187 µM)	> 200 µg/mL		50 µg/mL (≈ 93.5 µM)	Non-toxic	16.1 µg/mL (≈ 30.2 µM)	7.46 µg/mL (≈ 14 µM)
COC(=O)[C@H](CCCNC(=N)N)NC(=O)[C@@H](N)Cc1c[nH]c(C23CC4CC(CC(C4)C2)C3)n1	10 µg/mL (≈ 21.8 µM)	3.67 µg/mL (≈ 7.99 µM)	20 µg/mL (≈ 43.5 µM)	4.28 µg/mL (≈ 9.31 µM)	> 200 µg/mL		200 µg/mL (≈ 435 µM)	200 µg/mL (≈ 435 µM)	35.5 µg/mL (≈ 77.2 µM)	> 200 µg/mL	Non-toxic	19.4 µg/mL (≈ 42.2 µM)	
N[C@@H](Cc1c[nH]c2ccccc12)C(=O)N[C@@H](Cc1c[nH]c(C2CCCCC2)n1)C(=O)NCc1ccccc1	10 µg/mL (≈ 19.5 µM)	4.8 µg/mL (≈ 9.36 µM)	50 µg/mL (≈ 97.5 µM)	7.54 µg/mL (≈ 14.7 µM)	> 200 µg/mL		50 µg/mL (≈ 97.5 µM)	> 200 µg/mL		100 µg/mL (≈ 195 µM)	Non-toxic	17.4 µg/mL (≈ 33.9 µM)	8.41 µg/mL (≈ 16.4 µM)
COC(=O)[C@H](CCCNC(=N)N)NC(=O)[C@@H](N)Cc1c[nH]c(C(C)(C)C)n1	20 µg/mL (≈ 52.4 µM)	5.39 µg/mL (≈ 14.1 µM)	20 µg/mL (≈ 52.4 µM)	2.53 µg/mL (≈ 6.63 µM)	200 µg/mL (≈ 524 µM)	18.5 µg/mL (≈ 48.4 µM)	200 µg/mL (≈ 524 µM)	> 200 µg/mL		100 µg/mL (≈ 262 µM)	Non-toxic	10.5 µg/mL (≈ 27.6 µM)	9.65 µg/mL (≈ 25.3 µM)
COC(=O)[C@H](CCCNC(=N)N)NC(=O)[C@H](Cc1c[nH]c(C2CCCCC2)n1)NC(=O)OC(C)(C)C	200 µg/mL (≈ 394 µM)	10.1 µg/mL (≈ 19.9 µM)	100 µg/mL (≈ 197 µM)	10 µg/mL (≈ 19.7 µM)	100 µg/mL (≈ 197 µM)	4.93 µg/mL (≈ 9.71 µM)	> 200 µg/mL	200 µg/mL (≈ 394 µM)	27.5 µg/mL (≈ 54.2 µM)	100 µg/mL (≈ 197 µM)	Non-toxic		9.44 µg/mL (≈ 18.6 µM)
COC(=O)[C@H](Cc1c[nH]c(C2CCCCC2)n1)NC(=O)[C@@H](N)Cc1c[nH]c2ccccc12	100 µg/mL (≈ 229 µM)	10.1 µg/mL (≈ 23.1 µM)	200 µg/mL (≈ 457 µM)	12.5 µg/mL (≈ 28.5 µM)	> 200 µg/mL		200 µg/mL (≈ 457 µM)	> 200 µg/mL		> 200 µg/mL	Non-toxic	29.4 µg/mL (≈ 67.1 µM)	
COC(=O)[C@H](CCCNC(=N)N)NC(=O)[C@H](Cc1c[nH]c(C23CC4CC(CC(C4)C2)C3)n1)NC(=O)OC(C)(C)C	50 µg/mL (≈ 89.3 µM)	9.77 µg/mL (≈ 17.5 µM)	50 µg/mL (≈ 89.3 µM)	6.87 µg/mL (≈ 12.3 µM)	100 µg/mL (≈ 179 µM)	8.33 µg/mL (≈ 14.9 µM)	200 µg/mL (≈ 357 µM)	100 µg/mL (≈ 179 µM)	25.7 µg/mL (≈ 45.9 µM)	200 µg/mL (≈ 357 µM)	Non-toxic	31.5 µg/mL (≈ 56.2 µM)	16.1 µg/mL (≈ 28.8 µM)
COC(=O)[C@H](Cc1c[nH]c(C23CC4CC(CC(C4)C2)C3)n1)NC(=O)[C@@H](N)Cc1c[nH]c2ccccc12	20 µg/mL (≈ 40.8 µM)	2.3 µg/mL (≈ 4.7 µM)	20 µg/mL (≈ 40.8 µM)	4.59 µg/mL (≈ 9.37 µM)	> 200 µg/mL		200 µg/mL (≈ 408 µM)	> 200 µg/mL		> 200 µg/mL	Non-toxic	24.4 µg/mL (≈ 49.9 µM)	
N=C(N)NCCC[C@H](NC(=O)[C@@H](N)Cc1c[nH]c(C2CCCCC2)n1)C(=O)NCc1ccccc1	20 µg/mL (≈ 41.4 µM)	2.06 µg/mL (≈ 4.27 µM)	5 µg/mL (≈ 10.4 µM)	1 µg/mL (≈ 2.07 µM)	200 µg/mL (≈ 414 µM)	17.5 µg/mL (≈ 36.3 µM)	200 µg/mL (≈ 414 µM)	> 200 µg/mL		200 µg/mL (≈ 414 µM)	Non-toxic	23.5 µg/mL (≈ 48.7 µM)	18 µg/mL (≈ 37.3 µM)
CC(C)(C)OC(=O)N[C@@H](Cc1c[nH]c2ccccc12)C(=O)N[C@@H](Cc1c[nH]cn1)C(=O)NCc1ccccc1 (Boc-Trp-His-NHBn)	> 200 µg/mL		200 µg/mL (≈ 377 µM)	15.6 µg/mL (≈ 29.4 µM)	> 200 µg/mL		200 µg/mL (≈ 377 µM)	200 µg/mL (≈ 377 µM)	40.7 µg/mL (≈ 76.7 µM)	200 µg/mL (≈ 377 µM)	Non-toxic	21.2 µg/mL (≈ 40 µM)	9.7 µg/mL (≈ 18.3 µM)
O=C(O)c1cn(C2CC2)c2cc(N3CCNCC3)c(F)cc2c1=O [CIPROFLOXACIN]									1.18 µg/mL (≈ 3.56 µM)				
